In the oligonucleotide strings, read from the 5' end, every base follows the letter of its sugar. An asterisk marks phosphorothioate; unmarked linkages are phosphodiester. Other units and linkages are bracketed, terminal groups are in braces. A string of capitals states the bases alone. e = 2'-O-(2-methoxyethyl) (MOE); [5mC] = 5-methylcytosine; d = 2'-deoxy (DNA)
Tested on: human apolipoprotein B mRNA
Assay: Inhibition of human apolipoprotein B mRNA levels in HepG2 cells, quantitative real-time PCR
Format: cell-based
Conditions: for % INHIB / Percent Inhibition 50 nM / Percent Inhibition 150 nM / Percent Inhibition 250 nM / % INHIB 50 nm / % INHIB 150 nm / % inhibition of apolipoprotein B mRNA levels / % Change in apolipoprotein B mRNA expression: HepG2 cells; for Percent Inhibition 50 nM / Percent Inhibition 150 nM / Percent Inhibition 250 nM: Table 2; for % INHIB (inhibition of human apolipoprotein B mRNA levels): HepG2 cells treated with 150 nM of compound, quantitative real-time PCR; for % inhibition of apolipoprotein B mRNA levels: normalized to untreated control, average of two experiments; for % Change in apolipoprotein B mRNA expression: 24 hour (Table 41)
Method: The human hepatoblastoma cell line HepG2 was obtained from the American Type Culture Collection (Manassas, Va.). HepG2 cells were routinely cultured in Eagle's MEM supplemented with 10% fetal calf serum, non-essential amino acids, and 1 mM sodium pyruvate (Gibco/Life Technologies, Gaithersburg, Md.). Cells were routinely passaged by trypsinization and dilution when they reached 90% confluence. Cells were seeded into 96-well plates (Falcon-Primaria #3872) at a density of 7000 cells/well for use in RT-PCR analysis.
When cells reached 80% confluency, they were treated with oligonucleotide. For cells grown in 96-well plates, wells were washed once with 200 μL OPTI-MEM™-1 reduced-serum medium (Gibco BRL) and then treated with 130 μL of OPTI-MEM™-1 containing 3.75 μg/mL LIPOFECTIN™ (Gibco BRL) and the desired concentration of oligonucleotide. After 4-7 hours of treatment, the medium was replaced with fresh medium. Cells were harvested 16-24 hours after oligonucleotide treatment.
Quantitation of apolipoprotein B mRNA levels was determined by real-time quantitative PCR using the ABI PRISM™ 7700 Sequence Detection System (PE-Applied Biosystems, Foster City, Calif.) according to manufacturer's instructions. This is a closed-tube, non-gel-based, fluorescence detection system which allows high-throughput quantitation of polymerase chain reaction (PCR) products in real-time. As opposed to standard PCR, in which amplification products are quantitated after the PCR is completed, products in real-time quantitative PCR are quantitated as they accumulate. This is accomplished by including in the PCR reaction an oligonucleotide probe that anneals specifically between the forward and reverse PCR primers, and contains two fluorescent dyes. A reporter dye (e.g., JOE, FAM, or VIC, obtained from either Operon Technologies Inc., Alameda, Calif. or PE-Applied Biosystems, Foster City, Calif.) is attached to the 5′ end of the probe and a quencher dye (e.g., TAMRA, obtained from either Operon Technologies Inc., Alameda, Calif. or PE-Applied Biosystems, Foster City, Calif.) is attached to the 3′ end of the probe. When the probe and dyes are intact, reporter dye emission is quenched by the proximity of the 3′ quencher dye. During amplification, annealing of the probe to the target sequence creates a substrate that can be cleaved by the 5′-exonuclease activity of Taq polymerase. […] With each cycle, additional reporter dye molecules are cleaved from their respective probes, and the fluorescence intensity is monitored at regular intervals by laser optics built into the ABI PRISM™ 7700 Sequence Detection System. In each assay, a series of parallel reactions containing serial dilutions of mRNA from untreated control samples generates a standard curve that is used to quantitate the percent inhibition after antisense oligonucleotide treatment of test samples.
PCR reagents were obtained from PE-Applied Biosystems, Foster City, Calif. RT-PCR reactions were carried out by adding 25 μL PCR cocktail (1× TAQMAN™ buffer A, 5.5 mM MgCl2, 300 μM each of DATP, dCTP and dGTP, 600 μM of dUTP, 100 nM each of forward primer, reverse primer, and probe, 20 Units RNAse inhibitor, 1.25 Units AMPLITAQ GOLD™, and 12.5 Units MuLV reverse transcriptase) to 96 well plates containing 25 μL total RNA solution. The RT reaction was carried out by incubation for 30 minutes at 48° C. Following a 10 minute incubation at 95° C. to activate the AMPLITAQ GOLD™, 40 cycles of a two-step PCR protocol were carried out: 95° C. for 15 seconds (denaturation) followed by 60° C. for 1.5 minutes (annealing/extension).
Gene target quantities obtained by real time RT-PCR are normalized using either the expression level of GAPDH, a gene whose expression is constant, or by quantifying total RNA using RiboGreen™ (Molecular Probes, Inc. Eugene, Oreg.). GAPDH expression is quantified by real time RT-PCR, by being run simultaneously with the target, multiplexing, or separately. […]

[1] = Table 1, 150 nM, averages from two experiments
[2] = human apolipoprotein B mRNA, oligonucleotides targeting genomic sequence SEQ ID NO 334, averages from two experiments
[3] = Table 17 variable gap, 50 nM, averages from three experiments
[4] = Table 17 variable gap, 150 nM, averages from three experiments

147788 (antisense eT*eT*eT*e[5mC]*eT*dG*dT*dT*dG*d[5mC]*d[5mC]*dA*d[5mC]*dA*dT*eT*eG*e[5mC]*e[5mC]*e[5mC]) [compound 147788]
% INHIB [1]: 95% | Percent Inhibition 50 nM (50 nM): 54% | Percent Inhibition 150 nM (150 nM): 63% | Percent Inhibition 250 nM: 72%

271040 (eG*eT*e[5mC]*e[5mC]*eT*dT*d[5mC]*dA*dT*dA*dT*dT*dT*dG*d[5mC]*e[5mC]*eA*eT*e[5mC]*eT; antisense) [compound 271040]
% INHIB (Table 12, 150 nM, averages from two experiments): 0%

308623 (eG*e[5mC]*eG*e[5mC]*e[5mC]*dT*dT*d[5mC]*dT*dG*d[5mC]*dT*dT*dG*dA*eG*eT*eT*eA*e[5mC]; antisense) [compound 308623]
% INHIB 50 nm (Table 13 gene walk, 50 nM, averages from two experiments): 62% | % INHIB 150 nm (Table 13 gene walk, 150 nM, averages from two experiments): 71%

301018 (e[5mC]*eT*e[5mC]*e[5mC]*eT*d[5mC]*dA*dG*d[5mC]*dG*dG*d[5mC]*dA*dG*d[5mC]*eA*eA*e[5mC]*e[5mC]*eG; antisense) [compound 301018]
% INHIB (inhibition of human apolipoprotein B mRNA levels) (averages from two experiments): 45%

301192 (antisense eT*eG*eA*eG*eG*dA*dT*dG*dT*dA*dA*dT*dT*dA*dG*e[5mC]*eA*e[5mC]*eT*eT) [compound 301192]
% INHIB [2]: 27%

308651 (antisense GCCTCAGTCTGCTTCGCGCC; 7-10-3 2'-MOE gapmer, phosphorothioate, chemistry not fully specified) [compound 308651]
% inhibition of apolipoprotein B mRNA levels (12.5 nM oligonucleotide): 57% | % inhibition of apolipoprotein B mRNA levels (37 nM oligonucleotide): 76% | % inhibition of apolipoprotein B mRNA levels (75 nM oligonucleotide): 84% | % inhibition of apolipoprotein B mRNA levels (150 nM oligonucleotide): 90% | % inhibition of apolipoprotein B mRNA levels (300 nM oligonucleotide): 88% | % INHIB 50 nm [3]: 87% | % INHIB 150 nm [4]: 88%

301151 (e[5mC]*e[5mC]*eT*e[5mC]*eT*d[5mC]*d[5mC]*dA*dA*dT*d[5mC]*dT*dG*dT*dA*eG*eA*e[5mC]*e[5mC]*e[5mC]; antisense) [compound 301151]
% INHIB [2]: 28%

270995 (antisense eT*e[5mC]*e[5mC]*eT*e[5mC]*dT*dT*dA*dG*d[5mC]*dG*dT*d[5mC]*d[5mC]*dA*eG*eT*eG*eT*eG) [compound 270995]
% INHIB (inhibition of human apolipoprotein B mRNA levels) (averages from two experiments): 40%

301078 (eT*eT*eT*eT*eA*dA*dA*dA*dT*dT*dA*dG*dA*d[5mC]*d[5mC]*e[5mC]*eA*eA*e[5mC]*e[5mC]; antisense) [compound 301078]
% INHIB [2]: 22%

301085 (antisense eT*eG*eG*eG*eA*d[5mC]*dT*dT*dA*d[5mC]*d[5mC]*dA*dT*dG*d[5mC]*e[5mC]*eT*eT*eT*eG) [compound 301085]
% INHIB [2]: 11%

332781 (antisense CTCAGTCTGCTTCGCA; sugars from the 5' end e3 d10 e3, all phosphorothioate, methylation of C not given here) [compound 332781]
% Change in apolipoprotein B mRNA expression (10 nM): −9% | % Change in apolipoprotein B mRNA expression (50 nM): −35% | % Change in apolipoprotein B mRNA expression (150 nM): −60%

147814 (antisense e[5mC]*e[5mC]*e[5mC]*eA*eA*dT*dA*dA*dG*dA*dT*dT*dT*dA*dT*eA*eA*e[5mC]*eA*eA) [compound 147814]
% INHIB [1]: 34%

301190 (antisense eA*eG*eA*e[5mC]*eA*d[5mC]*dA*dT*dA*d[5mC]*d[5mC]*dA*dT*dA*dA*eT*eG*e[5mC]*e[5mC]*eA) [compound 301190]
% INHIB [2]: 22%

301152 (e[5mC]*eT*eG*eG*eA*dT*dA*dA*d[5mC]*dT*d[5mC]*dA*dG*dA*d[5mC]*e[5mC]*eT*eT*eT*eG; antisense) [compound 301152]
% INHIB [2]: 40%

147785 (antisense eG*e[5mC]*e[5mC]*e[5mC]*eG*d[5mC]*d[5mC]*dA*dG*d[5mC]*dA*dG*d[5mC]*dA*dG*e[5mC]*eA*eG*e[5mC]*eA) [compound 147785]
% INHIB [1]: 29%

308591 (antisense eG*e[5mC]*eA*e[5mC]*e[5mC]*dT*dT*d[5mC]*dT*dG*d[5mC]*dT*dT*dG*dA*eG*eT*eT*eA*e[5mC]) [compound 308591]
% INHIB 50 nm (Table 11 gene walk, 50 nM, averages from two experiments): 76% | % INHIB 150 nm (Table 11 gene walk, 150 nM, averages from two experiments): 92%

270987 (antisense e[5mC]*e[5mC]*eT*e[5mC]*e[5mC]*dA*dG*d[5mC]*dT*d[5mC]*dA*dA*d[5mC]*d[5mC]*dT*eT*eG*e[5mC]*eA*eG) [compound 270987]
% INHIB (inhibition of human apolipoprotein B mRNA levels) (averages from two experiments): 0%

308645 (antisense GCCTCAGTCTGCTTCGCGCC; 4-10-6 2'-MOE gapmer, phosphorothioate, chemistry not fully specified) [compound 308645]
% INHIB 50 nm [3]: 57% | % INHIB 150 nm [4]: 98%

301188 (antisense eA*eA*e[5mC]*eT*eT*d[5mC]*dT*dA*dA*dA*dG*d[5mC]*d[5mC]*dA*dA*e[5mC]*eA*eT*eT*e[5mC]) [compound 301188]
% INHIB [2]: 27%

332784 (antisense GCCTCAGTCT; linkages s4 o1 s4 (s phosphorothioate, o phosphodiester), sugars by position and methylation of C not given here; 2'-MOE wings flank a DNA gap) [compound 332784]
% Change in apolipoprotein B mRNA expression (10 nM): +12% | % Change in apolipoprotein B mRNA expression (50 nM): −1% | % Change in apolipoprotein B mRNA expression (150 nM): +7%

281644 (e[5mC]*eT*eG*eT*e[5mC]*dT*d[5mC]*d[5mC]*dT*dA*d[5mC]*d[5mC]*dA*dA*dT*eG*e[5mC]*eT*eG*eG; antisense) [compound 281644]
% INHIB (inhibition of human apolipoprotein B mRNA levels) (averages from two experiments): 26%

147806 (antisense eA*eT*eG*eT*eG*dG*dT*dA*dA*d[5mC]*dG*dA*dG*d[5mC]*d[5mC]*e[5mC]*eG*eA*eA*eG) [compound 147806]
% INHIB [1]: 100% | Percent Inhibition 50 nM (50 nM): 23% | Percent Inhibition 150 nM (150 nM): 45% | Percent Inhibition 250 nM: 28%

301175 (antisense eA*eG*e[5mC]*eA*eA*dA*dT*dT*dG*dG*dG*dA*dT*d[5mC]*dT*eG*eT*eG*e[5mC]*eT) [compound 301175]
% INHIB [2]: 29%

147794 (antisense eG*eT*eA*eA*eT*d[5mC]*dT*dT*d[5mC]*dA*dT*d[5mC]*d[5mC]*d[5mC]*d[5mC]*eA*eG*eT*eG*e[5mC]) [compound 147794]
% INHIB [1]: 47%

301202 (antisense e[5mC]*eA*eG*e[5mC]*eT*d[5mC]*dA*d[5mC]*dA*d[5mC]*dT*dT*dA*dT*dT*eT*eT*eA*eA*eA) [compound 301202]
% INHIB [2]: 7%

301109 (antisense eG*eT*eT*eT*e[5mC]*dA*dT*dG*dG*dA*dA*d[5mC]*dT*d[5mC]*dA*eG*e[5mC]*eG*e[5mC]*eA) [compound 301109]
% INHIB [2]: 44%
